In patent publication US20230382923A1, “FUSED TETRACYCLIC QUINAZOLINE DERIVATIVES AS INHIBITORS OF ERBB2” (EnLiven Therapeutics, Inc., priority 2021, published 2023):

Experiments:
[1] = biological target: phosphorylated ERBB2 (pERBB2) (Homo sapiens (Human), UniProt P04626); assay: Detection of phosphorylated ERBB2 (pERBB2) by ELISA in BT-474 cells; type: cell-based; conditions: four hours incubation with compound
Experimental: BT-474 cells were seeded into a 96-well at 2.0*10^4cells/100 μl/well. Compounds were dissolved and serially diluted in DMSO. The compounds were then were added, mixed, and incubated for four hours at 37° C., 5% CO2. […] Following the four hour incubation with compounds, cell lysates were prepared. Plates were centrifuged for 5 min at 3000 RPM, and supernatant was removed from each well. Cells were washed 3 times by resuspension in 150 μl PBS, followed by centrifugation and removal of the supernatant, as above. 100 μl of cell lysis buffer (Boston BioProducts, cat #BP-115D) supplied with 1×complete ULTRA cocktail inhibitor (Thermo ScientificTM, cat #78443) was then added to the washed cells. Cells were incubated with lysis buffer for 1 hour at 4° C., and then stored at -80° C. Enzyme-linked immunosorbent assays (ELISA) were performed to measure phosphorylated ERBB2 levels. […] The next day, plates were washed with PBS+0.05% Tween20 (PBST). 150 μl of 5% BSA blocking solution was added for 1 hour at room temperature, with shaking. Plates were washed with PBST. Cell lysates were thawed and 100 μl of lysate was added to the ELISA plate. The plates were incubated for 2 hours at room temperature, with shaking. ELISA plates were then washed with PBST and 100 μl of an HRP-labeled detection antibody that binds phosphorylated tyrosine (R&D Systems, cat #841913) was added to each well. Plates were incubated for 1 hour at room temperature, with shaking. Plates were then washed with PBST, and 100 μl TMB substrate solution (R&D Systems, cat #DY999) was added. Plate were incubated in the dark for 20 minutes at room temperature. 50 μl of Stop solution (R&D Systems, cat #DY994) (50 μl) was added to each well and mixed. […] The remaining kinase activity by calculated using the following formula: % Relative activity=100×([…]). The low and high control values (“LC” and “HC”) were generated from lysate from wells without cells or with cells treated with 0.1% DMSO, respectively.

[2] = biological target: phosphorylated EGFR (pEGFR) (Homo sapiens (Human), UniProt P00533); assay: Detection of phosphorylated EGFR (pEGFR) by AlphaLISA in A431 cells; type: cell-based; conditions: A431 cells (10% FBS), 4 hours incubation, EGF 30 ng/mL for 10 minutes
Experimental: […] were performed to measure phosphorylated EGFR levels using A431 cells (10% FBS). A431 (1.0*10^4cells/40 μl/well) cells were seeded in 384 well. Compounds were dissolved in DMSO, serially diluted in DMSO and then were added, mixed, and incubated for 4 hours at 37° C., […]. Following the 4-hours incubation, cells were stimulated for 10 minutes with EGF (Invitrogen, cat #PHG0311) at a final concentration of 30 ng/mL in the incubator. The media was aspirated and cells were lysed in 10 μL lysis buffer with protease and phosphatase inhibitors (PerkinElmer, cat #ALSU-PEGFR-A50K). The plates were placed on a shaker for 5 minutes and then incubated for 30 min at 4° C. for complete lysis. The lysate was transferred to an Optiplate (Perkin Elmer, cat #6007290).
Acceptor mix (PerkinElmer, cat #ALSU-PEGFR-A50K) was prepared just before use and 5 μL was dispensed to all the wells, followed by a 1.5-2 h incubation at room temperature in dark. The donor mix (PerkinElmer, cat #ALSU-PEGFR-A50K) was prepared under low light conditions prior to use and 5 μl of donor mix was added to all the wells under subdued lighting or green filters. The plates were placed on a shaker for 5 min, sealed, and incubated overnight at room temperature in dark. Plates were read on the Envision (PerkinElmer) using standard AlphaLISA settings.
The percentage of inhibition on EGFR phosphorylation was calculated following equation: % Inhibition=100×(LumHC−LumSample)/(LumHC−LumLC). The low and high controls (LC/HC) are generated from lysate from wells with cells treated with DMSO or […] Staurosporine (BioAustralis, cat #BIA-S1086), […]. IC50 values were calculated by fitting the Curve using XLfit (v5.3.1.3), equation 201: Y=Bottom+(Top−Bottom)/(1+10^((LogIC50−X)*HillSlope)).

Chain of phosphorylated ERBB2 (pERBB2) (P04626 23-1255): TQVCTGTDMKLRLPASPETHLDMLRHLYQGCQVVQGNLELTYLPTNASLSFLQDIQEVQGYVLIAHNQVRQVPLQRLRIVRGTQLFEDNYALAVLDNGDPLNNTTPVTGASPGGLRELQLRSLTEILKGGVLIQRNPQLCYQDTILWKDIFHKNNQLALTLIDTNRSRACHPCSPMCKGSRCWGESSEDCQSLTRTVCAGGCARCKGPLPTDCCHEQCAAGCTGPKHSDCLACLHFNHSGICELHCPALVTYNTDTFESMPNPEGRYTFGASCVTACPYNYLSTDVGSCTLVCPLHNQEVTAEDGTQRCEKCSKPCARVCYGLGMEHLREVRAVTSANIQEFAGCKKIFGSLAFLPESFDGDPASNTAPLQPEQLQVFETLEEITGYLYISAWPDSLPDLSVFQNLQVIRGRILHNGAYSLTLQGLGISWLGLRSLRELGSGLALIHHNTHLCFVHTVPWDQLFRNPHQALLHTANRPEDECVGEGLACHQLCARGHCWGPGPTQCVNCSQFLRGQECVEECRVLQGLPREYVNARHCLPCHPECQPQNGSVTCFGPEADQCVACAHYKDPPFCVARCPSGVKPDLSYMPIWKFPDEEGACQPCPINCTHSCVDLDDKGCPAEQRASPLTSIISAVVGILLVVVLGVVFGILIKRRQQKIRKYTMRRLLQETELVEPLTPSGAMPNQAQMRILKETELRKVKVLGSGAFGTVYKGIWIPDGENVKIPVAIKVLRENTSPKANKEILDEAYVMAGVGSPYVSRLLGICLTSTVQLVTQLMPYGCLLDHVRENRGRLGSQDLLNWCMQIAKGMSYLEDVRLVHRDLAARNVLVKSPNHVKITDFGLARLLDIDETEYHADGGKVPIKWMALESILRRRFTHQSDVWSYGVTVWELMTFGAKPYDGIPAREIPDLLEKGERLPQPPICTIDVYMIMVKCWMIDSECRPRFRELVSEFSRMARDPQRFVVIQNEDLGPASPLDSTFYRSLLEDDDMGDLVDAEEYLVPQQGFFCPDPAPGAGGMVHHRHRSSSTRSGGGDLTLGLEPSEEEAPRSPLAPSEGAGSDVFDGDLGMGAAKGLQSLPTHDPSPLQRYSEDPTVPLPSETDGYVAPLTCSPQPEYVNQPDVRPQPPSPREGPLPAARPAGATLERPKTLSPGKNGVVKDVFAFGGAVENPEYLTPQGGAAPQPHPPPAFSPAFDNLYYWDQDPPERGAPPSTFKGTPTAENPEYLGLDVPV
Chain of phosphorylated EGFR (pEGFR) (P00533 25-1210): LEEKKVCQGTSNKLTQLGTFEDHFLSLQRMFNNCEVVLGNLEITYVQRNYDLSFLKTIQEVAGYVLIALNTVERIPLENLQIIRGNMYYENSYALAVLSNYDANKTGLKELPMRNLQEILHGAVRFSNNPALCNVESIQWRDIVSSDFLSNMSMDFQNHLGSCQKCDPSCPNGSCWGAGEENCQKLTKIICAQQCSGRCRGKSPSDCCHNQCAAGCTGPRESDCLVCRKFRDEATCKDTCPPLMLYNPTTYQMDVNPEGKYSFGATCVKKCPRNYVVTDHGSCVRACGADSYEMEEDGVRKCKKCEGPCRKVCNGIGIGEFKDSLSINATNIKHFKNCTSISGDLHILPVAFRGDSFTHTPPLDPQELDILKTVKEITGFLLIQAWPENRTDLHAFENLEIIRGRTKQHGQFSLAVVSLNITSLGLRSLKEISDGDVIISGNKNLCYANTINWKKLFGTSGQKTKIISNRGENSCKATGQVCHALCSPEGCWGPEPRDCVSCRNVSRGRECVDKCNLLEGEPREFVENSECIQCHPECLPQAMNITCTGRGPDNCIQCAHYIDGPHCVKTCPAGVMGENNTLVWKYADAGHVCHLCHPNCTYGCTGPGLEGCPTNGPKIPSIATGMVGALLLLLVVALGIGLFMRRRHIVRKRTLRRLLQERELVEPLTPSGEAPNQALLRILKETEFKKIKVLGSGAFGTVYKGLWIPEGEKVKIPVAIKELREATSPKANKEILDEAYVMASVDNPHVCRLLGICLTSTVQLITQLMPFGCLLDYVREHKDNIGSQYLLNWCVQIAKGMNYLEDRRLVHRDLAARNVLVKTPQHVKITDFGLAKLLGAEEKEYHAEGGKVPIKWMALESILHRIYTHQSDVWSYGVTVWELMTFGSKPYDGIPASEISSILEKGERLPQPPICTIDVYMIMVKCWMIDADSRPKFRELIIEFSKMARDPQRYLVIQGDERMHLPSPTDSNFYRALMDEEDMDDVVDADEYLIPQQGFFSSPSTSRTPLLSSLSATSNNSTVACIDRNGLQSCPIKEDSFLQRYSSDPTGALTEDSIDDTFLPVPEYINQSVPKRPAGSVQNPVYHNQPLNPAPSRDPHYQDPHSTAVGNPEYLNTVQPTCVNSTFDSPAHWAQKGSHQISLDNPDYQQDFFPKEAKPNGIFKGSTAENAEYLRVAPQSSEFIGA

Compound	IC50 [1] [nM]	IC50 [2] [nM]
Cc1cc(Nc2ncnc3cc4c(c(F)c23)N2CCN(C(=O)/C=C/CN(C)C)C(CO4)C2)ccc1Oc1ccn2ncnc2c1 (stereo in doubt) [Compound 40, (E)-1-((10S)-4-((4-([1,2,4]triazolo[1,5-a]pyridin-7-yloxy)-3-methylphenyl)amino)-5-fluoro-7,8,10,11-tetrahydro-9H-6,10-methano[1,4,7]oxadiazonino[3,2-g]quinazolin-9-yl)-4-(dimethylamino)but-2-en-1-one]	18.5	> 10000
Cc1cc(Nc2ncnc3cc4c(nc23)N2CCN(C(=O)/C=C/[C@H]3CCCN3C)C(CO4)C2)c(F)cc1Oc1ccn2ncnc2c1 (stereo in doubt) [Compound 41, (E)-1-((10S)-4-((4-([1,2,4]triazolo[1,5-a]pyridin-7-yloxy)-2-fluoro-5-methylphenyl)amino)-7,8,10,11-tetrahydro-9H-6,10-methanopyrimido[4′,5′:5,6]pyrido[3,2-b][1,4,7]oxadiazonin-9-yl)-3-((R)-1-methylpyrrolidin-2-yl)prop-2-en-1-one]	24.5	7300
CN(C)C/C=C/C(=O)N1CCN2CC1COc1cc3ncnc(Nc4ccc(Oc5ccn6ncnc6c5)cc4F)c3nc12 (stereo in doubt) [Compound 42, (E)-1-((10S)-4-((4-([1,2,4]triazolo[1,5-a]pyridin-7-yloxy)-2-fluorophenyl)amino)-7,8,10,11-tetrahydro-9H-6,10-methanopyrimido[4′,5′:5,6]pyrido[3,2-b][1,4,7]oxadiazonin-9-yl)-4-(dimethylamino)but-2-en-1-one]	10.8	1940
CN(C)C/C=C/C(=O)N1CCN2CC1COc1cc3ncnc(Nc4cc(Cl)c(Oc5ccn6ncnc6c5)cc4F)c3nc12 (stereo in doubt) [Compound 43, (E)-1-((10S)-4-((4-([1,2,4]triazolo[1,5-a]pyridin-7-yloxy)-5-chloro-2-fluorophenyl)amino)-7,8,10,11-tetrahydro-9H-6,10-methanopyrimido[4′,5′:5,6]pyrido[3,2-b][1,4,7]oxadiazonin-9-yl)-4-(dimethylamino)but-2-en-1-one]	8.69	1400
Cc1cc(Nc2ncnc3cc4c(nc23)N2CCN(C(=O)/C=C/CN(C)C)C(CO4)C2)c(F)cc1Oc1cncc(F)c1 (stereo in doubt) [Compound 44, (E)-4-(dimethylamino)-1-((10S)-4-((2-fluoro-4-((5-fluoropyridin-3-yl)oxy)-5-methylphenyl)amino)-7,8,10,11-tetrahydro-9H-6,10-methanopyrimido[4′,5′:5,6]pyrido[3,2-b][1,4,7]oxadiazonin-9-yl)but-2-en-1-one]	36	337
Cc1cc(Nc2ncnc3cc4c(nc23)N2CCN(C(=O)/C=C/C3CN(C)C3)C(CO4)C2)ccc1Oc1ccn2ncnc2c1 (stereo in doubt) [Compound 45, (E)-1-((10S)-4-((4-([1,2,4]triazolo[1,5-a]pyridin-7-yloxy)-3-methylphenyl)amino)-7,8,10,11-tetrahydro-9H-6,10-methanopyrimido[4′,5′:5,6]pyrido[3,2-b][1,4,7]oxadiazonin-9-yl)-3-(1-methylazetidin-3-yl)prop-2-en-1-one]	27.3	> 10000
Cc1cc(Nc2ncnc3cc4c(nc23)N2CCN(C(=O)/C=C/[C@H](C)N(C)C)C(CO4)C2)c(F)cc1Oc1ccn2ncnc2c1 (stereo in doubt) [Compound 47, (4S,E)-1-((10S)-4-((4-([1,2,4]triazolo[1,5-a]pyridin-7-yloxy)-2-fluoro-5-methylphenyl)amino)-7,8,10,11-tetrahydro-9H-6,10-methanopyrimido[4′,5′:5,6]pyrido[3,2-b][1,4,7]oxadiazonin-9-yl)-4-(dimethylamino)pent-2-en-1-one]	29.2	> 10000
CNC/C=C/C(=O)N1CCN2CC1COc1cc3ncnc(Nc4cc(C)c(Oc5ccn6ncnc6c5)cc4F)c3nc12 (stereo in doubt) [Compound 49, (E)-1-((10S)-4-((4-([1,2,4]triazolo[1,5-a]pyridin-7-yloxy)-2-fluoro-5-methylphenyl)amino)-7,8,10,11-tetrahydro-9H-6,10-methanopyrimido[4′,5′:5,6]pyrido[3,2-b][1,4,7]oxadiazonin-9-yl)-4-(methylamino)but-2-en-1-one]	31.5	2650
Cc1cc(Nc2ncnc3cc4c(nc23)N2CCN(C(=O)/C=C/[C@@H](C)N(C)C)C(CO4)C2)c(F)cc1Oc1ccn2ncnc2c1 (stereo in doubt) [Compound 50, (4R,E)-1-((10S)-4-((4-([1,2,4]triazolo[1,5-a]pyridin-7-yloxy)-2-fluoro-5-methylphenyl)amino)-7,8,10,11-tetrahydro-9H-6,10-methanopyrimido[4′,5′:5,6]pyrido[3,2-b][1,4,7]oxadiazonin-9-yl)-4-(dimethylamino)pent-2-en-1-one]	72.4	> 10000
Cc1cc(Nc2ncnc3cc4c(nc23)N2CCN(C(=O)/C=C/CN(C)C)C(CO4)C2)ccc1Oc1cncc(F)c1 (stereo in doubt) [Compound 51, (E)-4-(dimethylamino)-1-((10S)-4-((4-((5-fluoropyridin-3-yl)oxy)-3-methylphenyl)amino)-7,8,10,11-tetrahydro-9H-6,10-methanopyrimido[4′,5′:5,6]pyrido[3,2-b][1,4,7]oxadiazonin-9-yl)but-2-en-1-one]	8.84	177
Cc1cc(Nc2ncnc3cc4c(nc23)N2CCN(C(=O)/C=C/C3(F)CN(C)C3)C(CO4)C2)ccc1Oc1ccn2ncnc2c1 (stereo in doubt) [Compound 53, (E)-1-((10S)-4-((4-([1,2,4]triazolo[1,5-a]pyridin-7-yloxy)-3-methylphenyl)amino)-7,8,10,11-tetrahydro-9H-6,10-methanopyrimido[4′,5′:5,6]pyrido[3,2-b][1,4,7]oxadiazonin-9-yl)-3-(3-fluoro-1-methylazetidin-3-yl)prop-2-en-1-one]	51.1	3390
[2H]C([2H])(/C=C/C(=O)N1CCN2CC1COc1cc3ncnc(Nc4cc(C)c(Oc5ccn6ncnc6c5)cc4F)c3nc12)N(C)C (stereo in doubt) [Compound 58, (E)-1-((10S)-4-((4-([1,2,4]triazolo[1,5-a]pyridin-7-yloxy)-2-fluoro-5-methylphenyl)amino)-7,8,10,11-tetrahydro-9H-6,10-methanopyrimido[4′,5′:5,6]pyrido[3,2-b][1,4,7]oxadiazonin-9-yl)-4-(dimethylamino)but-2-en-1-one-4,4-d2]	5.5	869
[2H]C([2H])([2H])N(C([2H])([2H])[2H])C([2H])([2H])/C=C/C(=O)N1CCN2CC1COc1cc3ncnc(Nc4cc(C)c(Oc5ccn6ncnc6c5)cc4F)c3nc12 (stereo in doubt) [Compound 59, (E)-1-((10S)-4-((4-([1,2,4]triazolo[1,5-a]pyridin-7-yloxy)-2-fluoro-5-methylphenyl)amino)-7,8,10,11-tetrahydro-9H-6,10-methanopyrimido[4′,5′:5,6]pyrido[3,2-b][1,4,7]oxadiazonin-9-yl)-4-(bis(methyl-d3)amino)but-2-en-1-one-4,4-d2]	9	1380
